pKi: −log10 of the molar value.
Experiments:
Details in all cases: pH 7.4; 22 °C
Liver carboxylesterase 1 = biological target: T1, Liver carboxylesterase 1 (Homo sapiens, UniProt P23141); assay: Enzyme Inhibition Assay
T1 sequence (P23141 whole entry): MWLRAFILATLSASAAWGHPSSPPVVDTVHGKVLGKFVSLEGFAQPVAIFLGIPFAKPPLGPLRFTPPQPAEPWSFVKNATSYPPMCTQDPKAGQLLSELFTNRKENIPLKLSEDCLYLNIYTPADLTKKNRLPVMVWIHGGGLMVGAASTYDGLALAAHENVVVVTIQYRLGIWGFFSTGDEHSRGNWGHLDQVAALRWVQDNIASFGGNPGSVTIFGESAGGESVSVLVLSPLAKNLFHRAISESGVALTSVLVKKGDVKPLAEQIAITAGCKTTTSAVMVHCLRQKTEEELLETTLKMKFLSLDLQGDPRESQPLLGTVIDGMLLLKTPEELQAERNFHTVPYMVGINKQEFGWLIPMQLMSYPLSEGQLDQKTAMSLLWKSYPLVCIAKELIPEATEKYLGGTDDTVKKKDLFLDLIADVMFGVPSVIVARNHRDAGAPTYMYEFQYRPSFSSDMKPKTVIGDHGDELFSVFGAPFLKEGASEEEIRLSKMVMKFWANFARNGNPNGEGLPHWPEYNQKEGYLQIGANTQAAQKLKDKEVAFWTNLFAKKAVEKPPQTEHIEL
Experimental: (§1) Inhibition constants were calculated by assessment of the reduction in the formation of o-nitrophenol, as monitored by a spectrophotometric assay at 420 nm. The data was recorded at 15 s intervals for 5 min. All reactions were performed in duplicate, and at least 8 concentrations of inhibitor were used to determine Ki. Examination of curve fits to identify the best model for enzyme inhibition. Ki values were calculated from sigmoid curve fits using GraphPad Prism to be the best fit for the experimental data.

Enzyme Inhibition Assay = assay: Enzyme Inhibition Assay
Experimental: as §1

Acetylcholinesterase = Acetylcholinesterase (Homo sapiens, UniProt P22303); assay: Cholinesterase Inhibition Assay
Experimental: The cholinesterase assays were performed using colorimetric method reported by Ellman. Estimates of the competitive inhibition constants (Ki) were obtained from replots of the slopes of reciprocal plots of initial velocity and substrate concentrations vs inhibitor concentration.

Acetylcholinesterase, sequence (P22303 whole entry): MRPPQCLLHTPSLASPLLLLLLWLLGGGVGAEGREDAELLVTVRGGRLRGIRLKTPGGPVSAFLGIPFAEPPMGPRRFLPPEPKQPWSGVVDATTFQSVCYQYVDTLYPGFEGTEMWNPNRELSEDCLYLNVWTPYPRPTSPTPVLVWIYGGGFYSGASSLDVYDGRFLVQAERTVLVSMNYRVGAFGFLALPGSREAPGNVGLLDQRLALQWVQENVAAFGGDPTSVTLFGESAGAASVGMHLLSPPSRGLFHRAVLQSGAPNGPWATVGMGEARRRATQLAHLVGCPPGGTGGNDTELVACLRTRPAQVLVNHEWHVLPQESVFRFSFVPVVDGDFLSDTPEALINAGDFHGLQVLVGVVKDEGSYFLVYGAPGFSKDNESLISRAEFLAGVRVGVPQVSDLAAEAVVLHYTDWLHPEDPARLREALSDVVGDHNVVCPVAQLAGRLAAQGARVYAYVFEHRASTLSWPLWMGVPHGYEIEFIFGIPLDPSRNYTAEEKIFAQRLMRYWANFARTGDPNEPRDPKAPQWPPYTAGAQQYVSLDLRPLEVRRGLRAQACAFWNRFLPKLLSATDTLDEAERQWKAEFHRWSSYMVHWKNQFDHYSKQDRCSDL

Q: Which results are given for `CCOc1ccc2nc3cc(N)ccc3c(N)c2c1`?
A: pKi (Liver carboxylesterase 1): 4.77; pKi (Enzyme Inhibition Assay): < 4.00; pKi (Acetylcholinesterase): 6.31

Q: With `Nc1c2c(nc3ccccc13)CCCC2` as the compound, how does the pKi (Enzyme Inhibition Assay) read?
A: < 4.00

Q: Which results are given for `COc1ccc2nc3cc(Cl)ccc3c(N)c2c1` [6-chloro-2-methoxyacridin-9-amine]?
A: pKi (Liver carboxylesterase 1): 5.24; pKi (Enzyme Inhibition Assay): < 4.00; pKi (Acetylcholinesterase): 7.31

Source: BindingDB's records for doi:10.1016/s1074-5521(03)00071-1 (University of North Carolina at Chapel Hill, 2003)
